The target in experiment [1] is T1, Tyrosine-protein phosphatase non-receptor type 1 (Homo sapiens) (UniProt P18031).
T1 sequence (whole entry): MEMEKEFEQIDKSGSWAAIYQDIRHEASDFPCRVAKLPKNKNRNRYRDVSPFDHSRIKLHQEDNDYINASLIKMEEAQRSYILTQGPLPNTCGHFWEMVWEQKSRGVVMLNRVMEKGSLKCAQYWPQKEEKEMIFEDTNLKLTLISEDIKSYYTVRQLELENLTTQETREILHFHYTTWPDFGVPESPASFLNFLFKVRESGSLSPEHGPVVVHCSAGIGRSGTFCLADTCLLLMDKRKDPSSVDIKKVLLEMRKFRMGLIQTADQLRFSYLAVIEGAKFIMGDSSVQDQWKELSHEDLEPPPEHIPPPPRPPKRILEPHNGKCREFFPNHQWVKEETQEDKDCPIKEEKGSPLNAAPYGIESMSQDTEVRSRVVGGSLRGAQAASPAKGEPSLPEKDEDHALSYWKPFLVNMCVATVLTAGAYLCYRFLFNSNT
Briefly: Inhibition of PTP1B (unknown origin) at 24.2 uM.

Experiment [2] has as its system Jurkat. Briefly: Cytotoxicity against human Jurkat cells at 24.2 uM. It is filed as functional, cell-based.
In experiment [3] the target is T2, Tyrosine-protein phosphatase non-receptor type 1 (Homo sapiens, UniProt P18031).
T2 sequence (P18031 whole entry): T1 sequence (whole entry)
Briefly: Inhibition of PTP1B (unknown origin).

Active and inactive are the calls of the source. No cut-off for these calls is given here.

Data on 4 compounds can be found in ChEMBL document CHEMBL3392984, “Two new protein tyrosine phosphatase 1B inhibitors, hyattellactones A and B, from the Indonesian marine sponge Hyattella sp” (Bioorg Med Chem Lett, 2015).

For the compound `CC[C@@]1(C)CCC[C@]2(C)[C@H]3C[C@@H](O)[C@]4(C)C5=C(CC[C@H]4[C@]3(C)CC[C@@H]12)[C@H](C)OC5=O`, the inhibition result in experiment [1] and in experiment [2] was “inactive” in each case.
The compound `CC[C@]12CCCC(C)(C)[C@@H]1CC[C@]1(C)[C@@H]2C[C@@H](O)[C@]2(C)C3=C(CC[C@@H]12)[C@H](C)OC3=O` returned an inhibition in experiment [1] of 42%. In experiment [2], the inhibition result was “inactive”.
On to `CC[C@@]1(C)CCC[C@]2(C)[C@H]3C[C@@H](O)[C@]4(C)C5=C(CC[C@H]4[C@]3(C)CC[C@@H]12)[C@@H](C)OC5=O`, for which the inhibition result in experiment [1] and in experiment [2] was “inactive” each time. This compound displayed an IC50 in experiment [3] of 7.47 µM.
The compound `CC[C@]12CCCC(C)(C)[C@@H]1CC[C@]1(C)[C@@H]2C[C@@H](O)[C@]2(C)C3=C(CC[C@@H]12)[C@@H](C)OC3=O` yielded an inhibition in experiment [1] of 42%. Also, in experiment [2], the inhibition entry was “inactive”. The compound further displayed an IC50 in experiment [3] of 7.45 µM.
